In patent publication US6180599A, “Pharmaceutical composition, containing medium-chain fatty acids as active ingredients, for dental caries and periodontal disease” (priority 1997, dated 2001):

Key:
[1] = tested on: cariogenic plaque bacteria (standard strains); test: Inhibitory effect of bacterial growth, standard strains; format: cell-based, Streptococcus, Lactobacillus and Actinomyces; settings: ranking; FIG. 3
Description: In order to evaluate how medium-chain fatty acids influence bacterial growth of cariogenic plaque bacteria, the influence on each bacteria was evaluated after selecting seven kinds of bacterial strains as standard bacteria among cariogenic plaque bacteria. […] The results that medium-chain fatty acids have on influencing bacterial growth of cariogenic plaque bacteria is shown in FIG. 3. And the result of measuring inhibitory effect of bacterial growth of 20 kinds of cariogenic plaque bacteria separated from the human oral cavities is shown in FIG. 4.

[2] = tested on: cariogenic plaque bacteria (standard strains); test: Inhibitory effect of acid production, standard strains; format: cell-based, Streptococcus, Lactobacillus and Actinomyces; settings: ranking; FIG. 1
Description: In order to identify the action by which medium-chain fatty acids inhibit acid production, the inhibitory effect and concentration of acid production were determined in seven kinds of standard cariogenic plaque bacteria. Also, the inhibitory effect of acid production for 20 kinds of cariogenic plaque bacteria, separated from the human oral cavity, was assayed. Liquid culture media used were: Todd-Hewitt broth of Streptococcus, Lactobacilli MRS broth of Lactobacillus and Brain Heart Infusion broth of Actinomyces. […] The final pH of the culture medium was measured after culturing for 24^~ 48 hours in 10% CO2 incubator.

[3] = tested on: cariogenic plaque bacteria; test: Inhibitory effect on extracellular polysaccharide synthesis (summary); format: cell-based, Streptococcus, Lactobacillus and Actinomyces; settings: 1 mM; ranking
Description: (§1) In order to identify the effect by which medium-chain fatty acids inhibit plaque matrix formation, inhibitory effect and concentration of extracellular polysaccharide synthesis were determined in seven kinds of standard cariogenic plaque bacteria. Also, the inhibitory effect of extracellular polysaccharide synthesis for 20 kinds of cariogenic plaque bacteria, separated from the human oral cavity, was measured. Liquid culture media used were: Todd-Hewitt broth of Streptococcus, Lactobacilli MRS broth of Lactobacillus and Brain Heart Infusion broth of Actinomyces. 0.1 ml of bacterial (or cell) suspension (OD600 =0.5) of each bacteria was inoculated to 5.9 ml of culture media containing 1 mM of medium-chain fatty acids and 2% of glucose, and was cultured for 24^~ 48 hours in 10% CO2 incubator. After culturing, the resultant was centrifuged to precipitate at 5,000×g for 15 minutes, then soluble extracellular polysaccharide was separated and purified from the supernatant and insoluble extracellular polysaccharide from the cell pellet, and then these were quantified. So the experimental results that represent inhibitory effect of medium-chain fatty acids upon extracellular polysaccharide synthesis, are shown in table 1, 2, 3 and 4.

[4] = tested on: Lactobacillus; test: Inhibitory effect on extracellular polysaccharide synthesis, summary over Lactobacillus standard strains; format: cell-based; settings: 1 mM, compared with control group, according to strains, read-out: synthesis of soluble extracellular polysaccharide inhibited/reduced by
Description: as §1, with “quantified.” for “quantified. So the experimental results that represent inhibitory effect of medium-chain fatty acids upon extracellular polysaccharide synthesis, are shown in table 1, 2, 3 and 4.”

[5] = Extracellular polysaccharide in liquid medium with fatty acid, no bacteria
Description: as §1, with “quantified.” for “quantified. So the experimental results that represent inhibitory effect of medium-chain fatty acids upon extracellular polysaccharide synthesis, are shown in table 1, 2, 3 and 4.”

[6] = tested on: L. casei ATCC 4646; test: Inhibitory effect on extracellular polysaccharide synthesis, standard strain; format: cell-based, Lactobacillus casei
Description: as §1, with “quantified.” for “quantified. So the experimental results that represent inhibitory effect of medium-chain fatty acids upon extracellular polysaccharide synthesis, are shown in table 1, 2, 3 and 4.”

[7] = tested on: L. casei ATCC 27216; test: as above; format: cell-based, Lactobacillus casei; settings: 1 mM, 2% glucose, 24-48 hours
Description: as §1, with “quantified.” for “quantified. So the experimental results that represent inhibitory effect of medium-chain fatty acids upon extracellular polysaccharide synthesis, are shown in table 1, 2, 3 and 4.”

[8] = tested on: S. mutans BHT; test: as above; format: cell-based, Streptococcus mutans; settings: 1 mM
Description: as §1, with “quantified.” for “quantified. So the experimental results that represent inhibitory effect of medium-chain fatty acids upon extracellular polysaccharide synthesis, are shown in table 1, 2, 3 and 4.”

[9] = tested on: S. mutans JC-2; test: as above; format: cell-based, Streptococcus mutans; settings: 1 mM
Description: as §1, with “quantified.” for “quantified. So the experimental results that represent inhibitory effect of medium-chain fatty acids upon extracellular polysaccharide synthesis, are shown in table 1, 2, 3 and 4.”

[10] = tested on: S. mutans 10449; test: as above; format: cell-based, Streptococcus mutans; settings: 1 mM
Description: as §1, with “quantified.” for “quantified. So the experimental results that represent inhibitory effect of medium-chain fatty acids upon extracellular polysaccharide synthesis, are shown in table 1, 2, 3 and 4.”

[11] = tested on: S. sanguis 10556; test: as above; format: cell-based; settings: 1 mM
Description: as §1, with “quantified.” for “quantified. So the experimental results that represent inhibitory effect of medium-chain fatty acids upon extracellular polysaccharide synthesis, are shown in table 1, 2, 3 and 4.”

[12] = tested on: A. viscosus ATCC 15987; test: as above; format: cell-based; settings: 1 mM, 2% glucose, 24-48 hours
Description: as §1, with “quantified.” for “quantified. So the experimental results that represent inhibitory effect of medium-chain fatty acids upon extracellular polysaccharide synthesis, are shown in table 1, 2, 3 and 4.”

[13] = tested on: Streptococcus; test: Inhibitory effect on extracellular polysaccharide synthesis, summary over Streptococcus standard strains; format: cell-based; settings: 1 mM, compared with control group, range over strains, read-out: synthesis of soluble extracellular polysaccharide inhibited by
Description: as §1, with “quantified.” for “quantified. So the experimental results that represent inhibitory effect of medium-chain fatty acids upon extracellular polysaccharide synthesis, are shown in table 1, 2, 3 and 4.”

## CCCCCCCCCC(=O)O [C10, sodium capriate]
[1]
  inhibitory effect of bacterial growth, sequence: sodium laurate>sodium capriate>sodium nonanoate
[2]
  inhibitory effect of acid production, sequence: sodium laurate>sodium capriate>sodium nonanoate
[3]
  inhibitory effect of extracellular polysaccharide synthesis, sequence: sodium laurate>sodium capriate>sodium nonanoate

## CCCCCCCCC(=O)[O-].[Na+] [C9, sodium nonanoate]
[1]
  inhibitory effect of bacterial growth, sequence: sodium laurate>sodium capriate>sodium nonanoate
[2]
  inhibitory effect of acid production, sequence: sodium laurate>sodium capriate>sodium nonanoate
[3]
  inhibitory effect of extracellular polysaccharide synthesis, sequence: sodium laurate>sodium capriate>sodium nonanoate
[4]
  inhibition at 1000 µM: 27%
[5]; Table 1, 1 mM
  Extracellular polysaccharide, soluble: 2.0 ± 0.7 µg/mL
[5]; Table 2, 1 mM
  Extracellular polysaccharide, soluble: 4.6 ± 0.2 µg/mL
[5]; Table 3, 1 mM
  Extracellular polysaccharide, soluble: 8.2 ± 0.4 µg/mL
[6]; 1 mM, 2% glucose, 24-48 hours, control 5.3 ± 0.5
  Extracellular polysaccharide, insoluble: 3.8 ± 0.5 µg/mL
[6]; 1 mM, 2% glucose, 24-48 hours, control 43.6 ± 7.0
  Extracellular polysaccharide, soluble: 31.9 ± 4.0 µg/mL
[6]; Lacticaseibacillus casei, ATCC4646, read-out: Inhibitory rate, soluble
  inhibition at 1000 µM: 27%
[7]; control 5.9 ± 0.4
  Extracellular polysaccharide, insoluble: 5.1 ± 0.5 µg/mL
[7]; control 67.3 ± 4.5
  Extracellular polysaccharide, soluble: 70.1 ± 3.3 µg/mL
[8]; 2% glucose, 24-48 hours, control 0.5 ± 0.1
  Extracellular polysaccharide, insoluble: 0.3 ± 0.1 µg/mL
[8]; Streptococcus mutans, vs control, read-out: Inhibitory rate, soluble
  inhibition at 1000 µM: 75%
[9]; 2% glucose, 24-48 hours, control 1.1 ± 0.2
  Extracellular polysaccharide, insoluble: 0.9 ± 0.3 µg/mL
[9]; 2% glucose, 24-48 hours, control 34.4 ± 3.9
  Extracellular polysaccharide, soluble: 6.2 ± 3.5 µg/mL
[9]; Streptococcus mutans, JC2, vs control, read-out: Inhibitory rate, soluble
  inhibition at 1000 µM: 82%
[10]; 2% glucose, 24-48 hours, control 0.8 ± 0.3
  Extracellular polysaccharide, insoluble: 0.6 ± 0.2 µg/mL
[10]; 2% glucose, 24-48 hours, control 74.6 ± 1.8
  Extracellular polysaccharide, soluble: 50.8 ± 12.2 µg/mL
[10]; Streptococcus mutans, 10449, vs control, read-out: Inhibitory rate, soluble
  inhibition at 1000 µM: 32%
[11]; 2% glucose, 24-48 hours, control 0.6 ± 0.3
  Extracellular polysaccharide, insoluble: 0.5 ± 0.2 µg/mL
[11]; 2% glucose, 24-48 hours, control 25.9 ± 4.3
  Extracellular polysaccharide, soluble: 17.4 ± 8.9 µg/mL
[11]; vs control, read-out: Inhibitory rate, soluble
  inhibition at 1000 µM: 33%
[12]; control 2.1 ± 0.2
  Extracellular polysaccharide, insoluble: 1.4 ± 0.5 µg/mL
[12]; control 222.8 ± 3.3
  Extracellular polysaccharide, soluble: 241.6 ± 3.9 µg/mL
[13]
  inhibition at 1000 µM: 32 to 82%
